PMC12651578, “Ultrasound-Assisted Fibril Formation Enhances Complexation of Oat Globulin with Quercetin: Mechanism, Structure Evolution, Delivery Performance” (Foods, 2025)

Columns and labels:
[1] = Photostability of Que under 365 nm UV lamp; type: physicochemical; settings: 1.32 mW/cm^2, 150 min
Method: The photostability of encapsulated Que was assessed using a 365 nm UV lamp with a light intensity of 1.32 mW/cm^2. Aliquots of 5 mL from each sample group were placed 10 cm away from the UV light source and exposed for various durations (0, 10, 30, 60, 90, 120, and 150 min). The retention of Que in each sample was then measured.

[2] = In vitro simulated gastrointestinal digestion, bioaccessibility of Que; type: in vitro ADME; settings: simulated gastric (2 h) and intestinal (2 h) digestion, 37 °C
Method: The release behavior and bioaccessibility of Que in the complex system were evaluated using an in vitro simulated digestion model with modifications based on previous studies. Briefly, sample solutions loaded with Que (protein concentration: 4 mg/mL) were mixed with equal volumes (10 mL) of simulated gastric fluid containing pepsin. The pH was adjusted to 2.0 using 6 M HCl, and the mixture was incubated at 37 °C with shaking at 100 rpm to simulate gastric digestion for 2 h. Afterward, the pH was adjusted to 7.0 to terminate gastric digestion. For intestinal digestion, 5 mL of the gastric digest was mixed with 5 mL of simulated intestinal fluid containing trypsin and bile salts, followed by incubation at 37 °C for another 2 h. The collected digestion products were centrifuged at 10,000× g for 30 min at 4 °C, and the supernatant was analyzed for Que content to determine the bioaccessibility: (8) Bioaccessibility of Que%=Csupernatant/Cdigesta×100% where Csupernatant denotes the Que content in the supernatant after digestion, and Cdigesta refers to the total Que content in the final digesta after simulated gastrointestinal digestion.

[3] = Thermal stability of Que at 85 °C; type: physicochemical
Method: The thermal stability of Que was evaluated following a previously described method with slight modifications. Briefly, 5 mL aliquots of free Que suspension (control), OG-Que complex solution, OGF-Que complex solution, and UOGF-Que complex solution were placed in a water bath at 85 °C under dark conditions in sealed containers. At predetermined time intervals (0, 10, 30, 60, 90, 120, and 150 min), samples were withdrawn, rapidly cooled to 25 °C, vortexed, and analyzed for Que retention.

UOGF [4] = molecular target: T1, UOGF; test: Intrinsic protein fluorescence quenching by quercetin (0-30 uM, 0.3 mg/mL protein, pH 3.2, inner filter corrected), double-logarithmic Stern-Volmer plot, 310 K.; type: binding; settings: n = 3
T1 construct: amyloid-like fibrils, ultrasound pretreatment (pH 2, 9 W/mL, 20 min) then 90 °C for 18 h, partly hydrolysed
Method: (§1) Intrinsic fluorescence spectroscopy was employed to investigate the interaction between OG and its fibrillar products with Que. The binding capacities of OG, OGF, and UOGF were evaluated at pH 3.2 with various concentrations of Que (0, 2.5, 5, 10, 15, 20, and 30 μM). The mixed samples were incubated at different temperatures of 24.85, 30.85, and 36.85 °C (298, 304, and 310 K) for 30 min. Then the intrinsic fluorescence spectra of each sample (0.3 mg/mL) were recorded using a Cary Eclipse fluorescence spectrophotometer (Agilent Technologies, Santa Clara, CA, USA) following to the previously described protocols. The instrument voltage was set to 650 V, with a slit width and scan rate of 5 nm and 1000 nm/min, respectively. Meanwhile, to correct for the inner filter effect, the following equation was applied as described by Ren et al.. (1) Fc=Fm×10^(Aex+Aem)/2 where Fc and Fm represent the corrected and measured fluorescence intensities, while Aex and Aem denote the absorbance at the excitation and emission wavelengths, respectively.
(§2) The fluorescence quenching mechanism of the complex system was further analyzed by fitting the obtained fluorescence intensity data using the Stern–Volmer equation: (2) F0/F=1+KSVQ=1+Kqτ0Q where F0 and F represent the fluorescence intensities of OG and its fibrils before and after the addition of the polyphenol quencher (Que), respectively; KSV is the Stern–Volmer quenching constant; Kq is the quenching rate constant; [Q] is the concentration of the quencher Que; and τ0 is the average lifetime of the fluorophore in the absence of the quencher.
(§3) Considering the static quenching effect between the OG protein/fibrils and the Que ligand, the binding mechanism was further analyzed using a double logarithmic Stern–Volmer equation: (9) lgF0−F/F=lgKa+nlgQ where the binding constant (Ka) and the number of binding sites (n) are key quantitative parameters reflecting the interaction between the bioactive molecule and the protein; the magnitude of Kₐ indicates the binding affinity between Que and the protein.

OG [5] = molecular target: T2, OG; test: as above; type: binding; settings: n = 3
T2 construct: native oat globulin isolate, unfibrillated, pH 3.2
Method: as §1, §2, §3

OGF [6] = molecular target: T3, OGF; test: as above; type: binding; settings: n = 3
T3 construct: amyloid-like fibrils made by acid-heat treatment without ultrasound, partly hydrolysed
Method: as §1, §2, §3

UOGF [7] = molecular target: T1, UOGF; test: Intrinsic protein fluorescence quenching by quercetin (0-30 uM, 0.3 mg/mL protein, pH 3.2, inner filter corrected), double-logarithmic Stern-Volmer plot, 304 K.; type: binding; settings: n = 3
Method: as §1, §2, §3

OG [8] = molecular target: T2, OG; test: as above; type: binding; settings: n = 3
Method: as §1, §2, §3

OGF [9] = molecular target: T3, OGF; test: as above; type: binding; settings: n = 3
Method: as §1, §2, §3

UOGF [10] = molecular target: T1, UOGF; test: Intrinsic protein fluorescence quenching by quercetin (0-30 uM, 0.3 mg/mL protein, pH 3.2, inner filter corrected), double-logarithmic Stern-Volmer plot, 298 K.; type: binding; settings: n = 3
Method: as §1, §2, §3

OG [11] = molecular target: T2, OG; test: as above; type: binding; settings: n = 3
Method: as §1, §2, §3

OGF [12] = molecular target: T3, OGF; test: as above; type: binding; settings: n = 3
Method: as §1, §2, §3

O=c1c(O)c(-c2ccc(O)c(O)c2)oc2cc(O)cc(O)c12 [Que, Quercetin]
retention rate of Que after UV exposure [1]: 27.78%
bioaccessibility of Que [2]: 8.21%
retention rate of Que after heating ([3]; 30 min): 45.13%
retention rate of Que after heating ([3]; 150 min): 26.48%

O=c1c(O)c(-c2ccc(O)c(O)c2)oc2cc(O)cc(O)c12 [Que, quercetin]
Ka (M^−1), 310 K (UOGF [4]): 202600 M⁻¹
Ka (M^−1), 310 K (OG [5]): 16470 M⁻¹
Ka (M^−1), 310 K (OGF [6]): 79670 M⁻¹
Ka (M^−1), 304 K (UOGF [7]): 49870 M⁻¹
Ka (M^−1), 304 K (OG [8]): 16330 M⁻¹
Ka (M^−1), 304 K (OGF [9]): 26060 M⁻¹
Ka (M^−1), 298 K (UOGF [10]): 20910 M⁻¹
Ka (M^−1), 298 K (OG [11]): 12850 M⁻¹
Ka (M^−1), 298 K (OGF [12]): 17140 M⁻¹
